Measurements as given in US10022362B2, “Anti-allergy benzocycloheptathiophene derivatives” (FUJIAN MINDONG REJUVENATION PHARMACEUTICAL CO., LTD., priority 2011, dated 2018).

Assays:
[1] = test system: Mouse bone marrow derived eosinophils; assay: Inhibition of eosinophil proliferation in vitro (3H-thymidine incorporation); assay type: cell-based; settings: for thymidine incorporation (eosinophil proliferation): eosinophils cultured with IL-5 (50 ng/ml), treated 1 hour, 3H-thymidine pulse 18 hours, CPM
Procedure: Mouse bone marrow derived eosinophils (1×10^5 cells/well) were seeded in 96 well plates in triplicate and were cultured with IL-5 (50 ng/ml). Eosinophils were treated with 4-[1-(5-methyl-pyridin-3-ylmethyl)piperidin-4-ylidene]-4,9-dihydro-1-thia-benzo[f]azulen-10-one (Compound A) or ketotifen for 1 hour. Cells were then pulsed with 0.5 μCi of ^3H-thymidine for 18 hours. Cells were harvested to glass fiber paper using a suction manifold and washed extensively to eliminate unincorporated thymidine. Fiber paper was dried and added to vials with 2.5 ml of scintillation fluid (Ecolite). Thymidine incorporation was measured on a Wallac beta counter.
The incorporation of ^3H-thymidine (eosinophil proliferation) was quantified by liquid scintillation counting (CPM).

[2] = test system: Mouse bone marrow derived mast cells (BMMCs); assay: Allergen-induced cytokine IL-6 production by mast cells in vitro; assay type: cell-based; settings: FIG. 4
Procedure: Mouse bone marrow derived mast cells (BMMCs) were resuspended in fresh complete medium supplemented with TIB141-conditioned medium enriched in IgE directed against trinitrophenyl (TNP) at a ratio of 3:1. BMMCs were typically sensitized at 0.5 million/ml. Following sensitization, BMMCs were washed extensively with RPMI 1640 supplemented with 10% FBS alone. BMMCs were then treated with 4-[1-(5-methyl-pyridin-3-ylmethyl)piperidin-4-ylidene]-4,9-dihydro-1-thia-benzo[f]azulen-10-one or ketotifen at the concentration of […], 1, 10 or 100 μM for 1 hour and subsequently stimulated with antigen TNP-BSA (10 ng/ml) for 6 h. Cytokine levels in the cell free supernatant were determined by ELISA.

[3] = test system: Mice sensitized with anti-DNP IgE mAb, DNP-BSA challenge; assay: Prophylactic effects: IgE-mediated passive cutaneous anaphylaxis (Evan's blue dye leakage); assay type: in vivo
Procedure: Mice were given 4-[1-(5-methyl-pyridin-3-ylmethyl)piperidin-4-ylidene]-4,9-dihydro-1-thia-benzo[f]azulen-10-one (1 mg/kg) or ketotifen (1 mg/kg) orally as per dosing schedule shown in FIG. 2A. Subsequently, mice were sensitized by intradermal injection of 20 ng antidinitrophenyl (DNP) IgE mAb (Sigma) into left ears, while right ear received saline as a control. After 24 h, mice were challenged by i.v. injection of 100 μg of DNP-Bovine Serum Albumin (BSA) (as an allergen) in 200 μl Evan's blue dye (1% wt/vol, Sigma). Thirty min later, ear punch (8 mm) was collected in 300 μl of formamide and incubated at 80° C. for 2 h in water bath to extract Evan's blue dye. The absorbance was determined at 620 nm. […] Granule-associated mediators such as histamine stimulate endothelium and blood vessel smooth muscle cells leading to increased vascular permeability.

[4] = test system: Mice passively sensitized with anti-DNP IgE mAb, DNFB application; assay: Therapeutic effects: IgE-mediated late phase cutaneous reactions (ear and foot swelling); assay type: in vivo; settings: FIG. 3B
Procedure: After 24 h, a cutaneous reaction was elicited by the application of 20 μL of DNFB (0.3% wt/vol, Sigma) in acetone-olive oil (4:1) to both sides of the left hind paw or left ear, and 20 μl of acetone-olive oil to the right hind paw or right ear as a control as shown in FIG. 3A. Three hours after DNFB application, mice were given 4-[1-(5-methyl-pyridin-3-ylmethyl)piperidin-4-ylidene]-4,9-dihydro-1-thia-benzo[f]azulen-10-one (1 mg/kg, p.o.), ketotifen (1 mg/kg, p.o.) or saline as control as indicated in FIG. 3A by the circled number “1”. The thickness of foot pad or ear was measured using a digital micrometer after 24 h of DNFB application. The weight of hind paw or ear punch (5 mm) was also determined. The thickness and weight of the right ear or right hind paw (treated with acetone-olive oil only) were used as baseline values. The DNFB-induced increment of tissue thickness was expressed as the percentage of the baseline values.

[5] = test system: Mice passively sensitized with anti-DNP IgE mAb, DNFB challenge; assay: Prophylactic effects: IgE-mediated late phase cutaneous reactions (ear and foot swelling); assay type: in vivo; settings: 1 mg/kg orally twice (before IgE injection and before DNFB challenge), thickness measured after 24 h, FIG. 1B
Procedure: Mice were given 4-[1-(5-methyl-pyridin-3-ylmethyl)piperidin-4-ylidene]-4,9-dihydro-1-thia-benzo[f]azulen-10-one (1 mg/kg) or ketotifen (1 mg/kg) orally twice as per the schedule dosing regimen provided in FIG. 1A as indicated by the numbered dose in a circle. The first dose (indicated by a circled number 1) was given on day 1 before IgE injection and a 2nd dose (indicated by a circled number 2) was given on day 2 before dinitrofluorobenzene (DNFB, as an allergen) challenge. Mice were passively sensitized by i.v. injection of 2 μg anti-DNP IgE mAb (Sigma). After 24 h, a cutaneous reaction was elicited by the application of 20 μl of DNFB (0.3% wt/vol, Sigma) in acetone-olive oil (4:1) to both sides of the left hind paw or left ear, and 20 μl of acetone-olive oil to the right hind paw or right ear as a control. The thickness of foot pad or ear was measured using a digital micrometer after 24 h. The thickness of the right ear or right hind paw (treated with acetone-olive oil only) was used as baseline values. The DNFB-induced increment of tissue thickness was expressed as the percentage of the baseline values.

[6] = 1 mg/kg p.o. each, three hours after DNFB application

Compound | thymidine incorporation (eosinophil proliferation) [1] | inhibition on eosinophil proliferation, compared with ketotifen ([1]; p<0.01, n=3 experiments, FIG. 5) | cytokine IL-6 production by mast cells ([2]; BMMCs treated at 01, 1, 10 or 100 μM for 1 hour, then TNP-BSA (10 ng/ml) for 6 h, ELISA) | reduction of IL-6 production by mast cells, compared with ketotifen ([2]; equivalent concentrations (01, 1, 10 or 100 μM)) | allergen (DNP)-induced Evan's blue dye leakage ([3]; 1 mg/kg orally before sensitization, compared to the vehicle control, FIG. 2B) | time after oral administration at which inhibitory effects on Evan's blue dye leakage and tissue swelling were observed ([3]; 1 mg/kg orally, suggesting long-lasting effects) | block of swelling and weight increase of ear and feet, compared with ketotifen [4, 6] | foot weight, activity compared with ketotifen [4, 6] | DNP-induced swelling and increase the weight of the ear and the feet ([4]; 1 mg/kg p.o. three hours after DNFB application, measured 24 h after DNFB application) | allergen DNFB-induced ear and foot swelling [5]
Cc1cncc(CN2CCC(=C3c4ccccc4CC(=O)c4sccc43)CC2)c1 [Compound A, 4-[1-(5-methyl-pyridin-3-ylmethyl)-piperidin-4-ylidene]-4,9-dihydro-1-thia-benzo[f]azulen-10-one] | dose-dependently reduced | significantly stronger inhibition | significantly reduce | even more effective than ketotifen at some of the equivalent concentrations used | strongly reduced | 24 h | comparable to ketotifen | surpassing the activity of ketotifen | significantly block | strongly reduced
CN1CCC(=C2c3ccccc3CC(=O)c3sccc32)CC1 [ketotifen, reference compound] | dose-dependently reduced | – | – | – | – | – | – | – | – | –
